From PubChem BioAssay AID328 (DTP/NCI, 2004) come the findings set out here.

The assay concerns BDF1 mice, P388 leukemia ip, median survival T/C. The assay is described as follows: NCI In Vivo Anticancer Drug Screen. Data for tumor model P388 Leukemia (intraperitoneal) in B6D2F1 (BDF1) mice. The conditions noted are these: endpoint: median survival time, higher = longer survival. An outline of the steps:
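Steps: implant the tumour, treat one group with compound and another with vehicle, record survival, then divide treated by control.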

The mark [1] stands for this setting: dose: 50.0 mg/kg/injection, schedule: Q01DX009 (ip), vehicle: saline.
The mark [2] stands for this setting: dose: 100.0 mg/kg/injection, schedule: Q01DX009 (ip), vehicle: saline with Tween-80.
[3] abbreviates: dose: 200.0 mg/kg/injection, schedule: Q01DX009 (ip), vehicle: saline with Tween-80.
Setting [4] is: dose: 400.0 mg/kg/injection, schedule: Q01DX009 (ip), vehicle: saline with Tween-80.
Where [5] appears, read: dose: 25.0 mg/kg/injection, schedule: Q04DX003 (ip), vehicle: saline with Tween-80.
[6] abbreviates: dose: 50.0 mg/kg/injection, schedule: Q04DX003 (ip), vehicle: saline with Tween-80.
Setting [7] is: dose: 100.0 mg/kg/injection, schedule: Q04DX003 (ip), vehicle: saline with Tween-80.
Where [8] appears, read: dose: 200.0 mg/kg/injection, schedule: Q04DX003 (ip), vehicle: saline with Tween-80.
The mark [9] stands for this setting: dose: 25.0 mg/kg/injection, schedule: Q01DX009 (ip), vehicle: Klucel (hydroxypropylcellulose) (HPC).

Where “and” joins values, the source holds several entries; their conditions need not be identical. Equal entries are not always repeated. Toxic doses and inconclusive results are not listed.

For the molecule `COc1cccc2c1C(=O)c1c(O)c3c(c(O)c1C2=O)C[C@@](O)(C(C)=O)C[C@@H]3OC1CC(NC(C)=O)C(O)C(C)O1` (stereo partly specified), the T/C was 112 % of control (dose: 0.73 mg/kg/injection, schedule: Q01DX009 (ip), vehicle: saline); 175 % of control (dose: 1.1 mg/kg/injection, schedule: Q01DX009 (ip), vehicle: saline); 109 % of control (dose: 1.25 mg/kg/injection, schedule: Q04DX003 (ip), vehicle: saline); 183 % of control (dose: 1.65 mg/kg/injection, schedule: Q01DX009 (ip), vehicle: saline); 187 % of control (dose: 2.5 mg/kg/injection, schedule: Q01DX009 (ip), vehicle: saline); 172 % of control (dose: 10.0 mg/kg/injection, schedule: Q04DX003 (ip), vehicle: saline). Also, the T/C reads like this: (dose: 12.5 mg/kg/injection, schedule: Q01DX009 (ip), vehicle: saline) 240 % of control and 191 % of control; (dose: 12.5 mg/kg/injection, schedule: Q01DX009 (ip), vehicle: water) 169 % of control; (dose: 25.0 mg/kg/injection, schedule: Q01DX009 (ip), vehicle: saline) 150 % of control; (dose: 25.0 mg/kg/injection, schedule: Q01DX009 (ip), vehicle: water) 192 % of control; (dose: 44.0 mg/kg/injection, schedule: Q04DX003 (ip), vehicle: saline sonified) 180 % of control; (dose: 44.0 mg/kg/injection, schedule: Q04DX003 (ip), vehicle: saline) 159 % of control. Further, the T/C under setting [1] was 227 % of control; the T/C (dose: 50.0 mg/kg/injection, schedule: Q01DX009 (ip), vehicle: water) was 204 % of control; the T/C (dose: 66.0 mg/kg/injection, schedule: Q04DX003 (ip), vehicle: saline sonified) was 175 % of control; the T/C (dose: 66.0 mg/kg/injection, schedule: Q04DX003 (ip), vehicle: saline) was 181 % of control; the T/C (dose: 100.0 mg/kg/injection, schedule: Q01DX009 (ip), vehicle: water) was 114 % of control; the T/C (dose: 100.0 mg/kg/injection, schedule: Q04DX003 (ip), vehicle: saline sonified) is 205 % of control. Further, the T/C runs as follows: (dose: 100.0 mg/kg/injection, schedule: Q04DX003 (ip), vehicle: saline) 195 % of control; (dose: 150.0 mg/kg/injection, schedule: Q04DX003 (ip), vehicle: saline sonified) 180 % of control; (dose: 150.0 mg/kg/injection, schedule: Q04DX003 (ip), vehicle: saline) 168 % of control.
For `O=C(O)CSc1ccc(NC(=O)NC2CCCCC2)cc1`, the T/C reads like this: under setting [2], 105 % of control; under setting [3], 115 % of control; under setting [4], 105 % of control.
For `CC1COC(Nc2cccc3c2CCCC3)=N1` (stereo unspecified), the T/C was 100 % of control (dose: 12.5 mg/kg/injection, schedule: Q04DX003 (ip), vehicle: saline with Tween-80); 109 % of control under setting [5]; 109 % of control under setting [6].
Consider `Cc1nc2c(N)nn(C)c2nc1C`, for which the T/C is, setting by setting: under setting [7], 100 % of control; under setting [8], 100 % of control.
`O=NN(CCCl)C(=O)Nc1ccc(CCCl)cc1`: the T/C was 90 % of control (dose: 37.5 mg/kg/injection, schedule: Q01DX009 (ip), vehicle: other); 120 % of control (dose: 37.5 mg/kg/injection, schedule: Q04DX003 (ip), vehicle: other); 90 % of control (dose: 66.0 mg/kg/injection, schedule: Q04DX003 (ip), vehicle: other); 100 % of control (dose: 75.0 mg/kg/injection, schedule: Q01DX009 (ip), vehicle: other); 120 % of control (dose: 75.0 mg/kg/injection, schedule: Q04DX003 (ip), vehicle: other); 95 % of control (dose: 99.0 mg/kg/injection, schedule: Q04DX003 (ip), vehicle: other). Besides, the T/C by setting is: (dose: 150.0 mg/kg/injection, schedule: Q01DX009 (ip), vehicle: other) 105 % of control; (dose: 150.0 mg/kg/injection, schedule: Q04DX003 (ip), vehicle: other) 255 % of control and 95 % of control; (dose: 225.0 mg/kg/injection, schedule: Q04DX003 (ip), vehicle: other) 100 % of control.
In the case of `Cc1cc(C)n(-c2nn3nnnc3c3ccccc23)n1`, the T/C was 95 % of control under setting [1]; 95 % of control (dose: 100.0 mg/kg/injection, schedule: Q01DX009 (ip), vehicle: saline); 93 % of control (dose: 200.0 mg/kg/injection, schedule: Q01DX009 (ip), vehicle: saline).
Take `C=C1C(=O)O[C@H]2C1[C@H](OC(=O)/C(C)=C\COC(C)=O)C[C@]1(CO1)[C@@H]1[C@H](O)[C@H]3O[C@@]3(C)[C@@H]12` (stereo partly specified): the T/C was 103 % of control (dose: 3.12 mg/kg/injection, schedule: Q01DX009 (ip), vehicle: other); 96 % of control and 120 % of control (dose: 6.25 mg/kg/injection, schedule: Q01DX009 (ip), vehicle: other); 101 % of control (dose: 12.5 mg/kg/injection, schedule: Q01DX009 (ip), vehicle: other); 173 % of control (dose: 50.0 mg/kg/injection, schedule: Q01DX009 (ip), vehicle: other).
On to `N=C(N)SC1c2cc(Cl)ccc2-c2c(Cl)cc(Cl)cc21` (stereo unspecified), for which the T/C (dose: 3.1 mg/kg/injection, schedule: Q01DX010 (ip), vehicle: carboxymethylcellulose (CMC)) was 100 % of control; the T/C (dose: 6.2 mg/kg/injection, schedule: Q01DX010 (ip), vehicle: carboxymethylcellulose (CMC)) was 110 % of control; the T/C (dose: 12.5 mg/kg/injection, schedule: Q01DX009 (ip), vehicle: Klucel (hydroxypropylcellulose) (HPC)) is 100 % of control; the T/C (dose: 12.5 mg/kg/injection, schedule: Q01DX010 (ip), vehicle: carboxymethylcellulose (CMC)) is 110 % of control; the T/C under setting [9] was 120 % of control; the T/C (dose: 100.0 mg/kg/injection, schedule: Q01DX010 (ip), vehicle: carboxymethylcellulose (CMC)) was 150 % of control.
Turning to `CS(=O)(=O)CC(O)(c1ccc(Cl)cc1)c1ccccn1` (stereo unspecified), the T/C (dose: 50.0 mg/kg/injection, schedule: Q01DX009 (ip), vehicle: saline with Tween-80) is 91 % of control; the T/C under setting [2] was 91 % of control; the T/C under setting [3] was 97 % of control.
With `C[C@@H]1C[C@](O)([C@@H](C)Cl)C(=O)O[C@@H]2CCN3CC=C(COC(=O)[C@]1(C)O)[C@H]23`, where the note is “dose: 30.0 mg/kg/injection, schedule: Q01DX010 (ip), vehicle: saline”, the T/C was 105 % of control.
`Cc1c(Cl)c(Cl)c(Cl)c(Cl)c1Cl`: the T/C under setting [2] is 118 % of control; the T/C under setting [7] was 104 % of control; the T/C under setting [3] was 95 % of control; the T/C under setting [8] was 104 % of control; the T/C under setting [4] is 95 % of control; the T/C (dose: 400.0 mg/kg/injection, schedule: Q04DX003 (ip), vehicle: saline with Tween-80) is 95 % of control.
Turning to `N#Cc1ccccc1NN=Nc1ccccc1-c1nc(N)nc(N)n1`, the T/C (dose: 12.0 mg/kg/injection, schedule: Q04DX003 (ip), vehicle: saline with Tween-80) was 115 % of control; the T/C (dose: 12.0 mg/kg/injection, schedule: Q04DX003 (ip), vehicle: saline) is 108 % of control; the T/C under setting [9] was 100 % of control; the T/C (dose: 25.0 mg/kg/injection, schedule: Q04DX003 (ip), vehicle: Klucel (hydroxypropylcellulose) (HPC)) is 104 % of control; the T/C under setting [5] was 105 % of control; the T/C (dose: 25.0 mg/kg/injection, schedule: Q04DX003 (ip), vehicle: saline) was 112 % of control. The T/C is 100 % of control (dose: 35.0 mg/kg/injection, schedule: Q01DX009 (ip), vehicle: Klucel (hydroxypropylcellulose) (HPC)); 95 % of control (dose: 35.0 mg/kg/injection, schedule: Q04DX003 (ip), vehicle: Klucel (hydroxypropylcellulose) (HPC)); 90 % of control (dose: 50.0 mg/kg/injection, schedule: Q01DX009 (ip), vehicle: Klucel (hydroxypropylcellulose) (HPC)); 104 % of control (dose: 50.0 mg/kg/injection, schedule: Q04DX003 (ip), vehicle: Klucel (hydroxypropylcellulose) (HPC)); 115 % of control under setting [6]; 116 % of control (dose: 50.0 mg/kg/injection, schedule: Q04DX003 (ip), vehicle: saline). Besides, the T/C is 90 % of control and 95 % of control (dose: 75.0 mg/kg/injection, schedule: Q01DX009 (ip), vehicle: Klucel (hydroxypropylcellulose) (HPC)); 95 % of control (dose: 75.0 mg/kg/injection, schedule: Q04DX003 (ip), vehicle: Klucel (hydroxypropylcellulose) (HPC)); 122 % of control (dose: 100.0 mg/kg/injection, schedule: Q01DX009 (ip), vehicle: Klucel (hydroxypropylcellulose) (HPC)).
